Results from patent US7829575B2, “Methods for treating androgen receptor related disorders” (University of Cincinnati, priority 2006, dated 2010).

Key:
LNCaP-ARR2-GFP cells = assay: AR-regulated GFP expression in LNCaP-ARR2-GFP cells; assay type: cell-based; details: SMEM, absence of DHT; DL3 at 25 nM or 20 μM
LNCaP cells [1] = assay: Expression of AR-regulated genes, quantitative RT-PCR (Table 1); assay type: cell-based; details: DL3 20 μM for 24 hr
Protocol: To evaluate the specificity of the effects of DL3, expression of several other genes are determined by quantitative RT-PCR. […] In contrast, DL3 enhances expression of prostate-specific membrane antigen (PSMA), which is repressed by AR activation.

LNCaP-Flut-R cells = assay: PSA secretion, ELISA of culture supernatant; assay type: cell-based; details: 1 nM DHT, 10 μM, 48 hr (FIG. 5D)
Protocol: (§1) For the following discussion, see FIG. 5, where androgen-starved LNCaP, LNCaP-Flut-R, or LNCaP-Nilut-R cells are plated into 96-well plates at 2×10^4 cells/wells in SMEM and treated for 48 hr. PSA in the culture supernatant is determined by using an enzyme-linked immunosorbent assay (ELISA) kit. PSA levels are normalized by cell density. […] The DHT-induced production of PSA is reduced by approximately 50% in cells treated with 5 μM of DL3 (FIG. 5B). […] PSA production is elevated in LNCaP-Flut-R and LNCaP-Nilut-R cells compared with that in their parental cells (FIG. 5D).

LNCaP-Nilut-R cells = assay: PSA secretion, ELISA of culture supernatant; assay type: cell-based; details: 1 nM DHT, 10 μM, 48 hr (FIG. 5D)
Protocol: as §1

LNCaP-AI cells = assay: Growth of androgen-independent LNCaP-AI cells, MTT; assay type: cell-based; details: SMEM, four days
Protocol: See, for example, FIG. 3 where LNCaP-A1 cells in SMEM and 22Rv1 cells in CMEM are cultured for four days with DL3, followed by MTT staining and 22Rv1 cells are obtained from ATCC.

LNCaP cells [2] = assay: AR protein stability and hsp70/hsp90 expression, western blotting; assay type: cell-based
Protocol: Cell lysates are prepared and analyzed by western blotting. […] To further determine how DL3 downregulates AR, LNCaP cells are incubated for 24 hr with DL3 in the absence or presence of proteasome inhibitor MG132.
Hsp70 and hsp90 are key molecular chaperones in cells. Along with several co-chaperones, hsp70 and hsp90 play critical roles in folding and assembling AR to a high-affinity ligand binding conformation and in regulating AR activation that occurs following hormone binding. Therefore, the possibility of whether the downregulation of AR protein by DL3 is mediated by its effects on hsp70 or hsp90 expression is investigated.
Thus, the effects of DL3 on hsp70 expression are further investigated in several other prostate cancer cell lines, including LAPC-4 (wildtype AR), 22Rv1 (mutant AR), and AR-negative cell lines PC-3, DU-145, PWE1-NB14 (ATCC), and PWE1-NB26 (ATCC). […] In FIG. 10, LAPC-4 (in SMEM) and all other (in CMEM) cells are treated for 24 hr and analyzed by western blotting. LNCaP cells are transfected for 24 hr with hsp70 or its control vector, then treated for 24 hr.

wildtype AR = target: T1, wildtype AR (Homo sapiens, UniProt P10275); assay: PSA promoter luciferase reporter in PC-3 cells co-transfected with AR; details: PC-3 cells transfected with wildtype AR, 20 μM, 1 nM DHT, 24 hr
T1 sequence (P10275 1-920): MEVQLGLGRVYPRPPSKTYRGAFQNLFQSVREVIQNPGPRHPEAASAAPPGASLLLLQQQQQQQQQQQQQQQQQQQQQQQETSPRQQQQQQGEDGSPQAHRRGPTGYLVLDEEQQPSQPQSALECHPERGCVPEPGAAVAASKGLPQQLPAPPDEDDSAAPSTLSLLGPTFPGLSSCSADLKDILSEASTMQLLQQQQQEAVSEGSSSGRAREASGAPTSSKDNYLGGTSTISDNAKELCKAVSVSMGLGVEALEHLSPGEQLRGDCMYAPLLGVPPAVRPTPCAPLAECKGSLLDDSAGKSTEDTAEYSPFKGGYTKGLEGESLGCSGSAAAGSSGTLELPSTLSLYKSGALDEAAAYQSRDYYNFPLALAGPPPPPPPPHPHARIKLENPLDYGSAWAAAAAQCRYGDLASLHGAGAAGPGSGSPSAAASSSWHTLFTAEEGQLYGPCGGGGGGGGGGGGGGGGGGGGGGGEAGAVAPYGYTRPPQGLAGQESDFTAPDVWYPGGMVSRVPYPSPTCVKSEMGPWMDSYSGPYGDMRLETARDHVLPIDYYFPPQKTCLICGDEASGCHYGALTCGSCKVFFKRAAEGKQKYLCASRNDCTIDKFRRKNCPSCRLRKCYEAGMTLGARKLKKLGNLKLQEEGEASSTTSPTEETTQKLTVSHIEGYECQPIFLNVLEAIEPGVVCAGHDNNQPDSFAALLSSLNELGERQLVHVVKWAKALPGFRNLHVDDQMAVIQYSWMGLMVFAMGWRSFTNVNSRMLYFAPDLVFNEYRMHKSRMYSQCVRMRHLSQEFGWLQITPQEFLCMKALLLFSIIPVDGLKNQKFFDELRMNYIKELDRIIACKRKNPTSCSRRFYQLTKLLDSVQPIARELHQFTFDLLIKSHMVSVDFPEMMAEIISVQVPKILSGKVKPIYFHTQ

LNCaP cells [3] = assay: PSA gene transcription, real-time PCR-based nuclear run-on; details: 20 μM, 16 hr
[4] = system: LAPC-4 cells (wildtype AR); assay: Cellular PSA and AR protein, western blotting; assay type: cell-based
LNCaP cells [5] = assay: Cell cycle distribution and apoptosis, flow cytometry (propidium staining) and western blotting; assay type: cell-based
Protocol: To further appreciate the effects of DL3 on cell growth, cell cycle distribution is determined using the flow cytometry analysis. After incubation of LNCaP cells for 24 hr in SMEM, the majority of cells are in the G1 phase of cell cycle. […] The cell cycle distribution is examined by the propidium staining method. […] Thus, DL3 induces GI arrest of prostate cancer cells in short term culture.

[6] = 20 μM DL3, time course to 48 hr (FIG. 9A)

DHT-induced activation of PSA promoter activity (wildtype AR): significantly inhibits
Structure (SMILES): CC(C)(C)c1ccc(OCCSc2nc(=O)cc(N)[nH]2)cc1 [DL3, 6-amino-2-(2-4-tert-butyl-phenoxy)-ethylsulfanyl-1H-pyrimidin-4-one]
GFP expression (AR agonist activity) (LNCaP-ARR2-GFP cells): does not induce GFP expression | IL-8 expression DL3/CTR (%) (LNCaP cells [1]): 107% | IL-8 expression level relative to β-actin (LNCaP cells [1]): 8.59e−04 | PSA expression DL3/CTR (%) (LNCaP cells [1]): 3% | PSA expression level relative to β-actin (LNCaP cells [1]): 3.03e−02 | PSCA expression DL3/CTR (%) (LNCaP cells [1]): 55% | PSCA expression level relative to β-actin (LNCaP cells [1]): 1.90e−04 | PSMA expression DL3/CTR (%) (LNCaP cells [1]): 379% | PSMA expression level relative to β-actin (LNCaP cells [1]): 1.35e−01 | hK2 expression DL3/CTR (%) (LNCaP cells [1]): 18% | hK2 expression level relative to β-actin (LNCaP cells [1]): 4.05e−03 | PSA production in LNCaP-Flut-R cells (LNCaP-Flut-R cells): inhibits PSA production | PSA production in LNCaP-Nilut-R cells (LNCaP-Nilut-R cells): inhibits PSA production | growth of androgen-independent LNCaP-AI cells (LNCaP-AI cells): suppressed | time after exposure at which AR downregulation can be observed (LNCaP cells [2]; 20 μM): 8 h | time after treatment at which reduction of hsp70 starts (LNCaP cells [2]; 20 μM DL3): 4 h | expression of hsp70 (LNCaP cells [2]; [6]): reduced | expression of hsp90 (LNCaP cells [2]; [6]): not | partial reversal by DHT of the CHX-diminished AR expression (LNCaP cells [2]; 24 hr with DHT, DL3 and CHX (FIG. 9B, lane 7 vs. lane 6)): also blocked | AR downregulation by DL3 under overexpression of hsp70 (LNCaP cells [2]; LNCaP cells transfected 24 hr with hsp70, then treated 24 hr): not able to protect AR downregulation | elevation of AR and PSA expression by DHT (LNCaP cells [2]; SMEM, 24 hr (FIG. 9B, lane 4 vs. lane 3)): blocked | AR protein levels (LNCaP cells [2]; dose-dependent): downregulates AR protein levels | DHT-induced PSA mRNA transcription activity of nuclear extracts (LNCaP cells [3]; 1 nM DHT): significantly reduced | basal PSA mRNA transcription activity of nuclear extracts (LNCaP cells [3]): significantly reduced | AR protein expression ([4]; 20 μM, 24 hr): similarly reduced | DHT-induced PSA protein expression ([4]; SMEM, 1 nM DHT, 20 μM DL3, 24 hr): inhibitory effects | increase of the portion of cells in G1 phase of cell cycle (LNCaP cells [5]; 24 hr, regardless of presence or absence of DHT): 15% | induction of apoptosis (LNCaP cells [5]; 24 hr, DL3 at 20 μM): does not induce apoptosis | survivin expression and caspase 3 cleavage (western blotting) (LNCaP cells [5]; data not shown): alter neither survivin expression nor caspase 3 cleavage
